Here are results for twelve compounds from patent publication US8481587B2, “Substituted 2-(5-hydroxy-2-methyl-1H-indole-3-yl)acetic acids and ethers thereof and the use of same to treat viral diseases” (priority 2008, dated 2013).

Values after ≈ are worked out from the molar mass of the structure shown. Where a name gives a salt, the structure may show the parent alone. Read-outs that look alike come from different tables or passages of the source.

Data set [1] deals with hepatisis C viruses (HCV) strain JFH-1. Description: Antiviral activity towards HCV in infected Huh7 cells (core-antigen ELISA). Type of data set: cell-based, HCV strain JFH-1 in human hepatoma (Huh7) cells. The settings on record: Hepatitis C virus, Huh-7; HCV strain JFH-1, Huh7 cells. On the procedure: Determination of antiviral activity of the compounds of the general formula 1 towards hepatisis C viruses. Determination of antiviral activity of the compounds of the general formula 1 towards hepatisis C viruses (HCV) strain JFH-1 in cell culture of human hepatoma (Huh7) infected with HCV.
Cells Huh7 were embedded in 96-well plates (7.5×10^3 cells in every well in 50 μl of nutrient solution). 5×-concentrated solutions of the tested compounds in DMEM medium {DMEM) 1×; the source: Cellgro; Catalogue: 10-013-CV} were prepared just before the usage. In total, four serial fivefold dilutions with concentration ranging from 250 μM to 2 μM were prepared. In 4 hours after cell embedding serial dilutions of the compounds were added to the cells (50 mkl per one well). Each dilution of the examined compound was tested for two identical wells. The final DMSO concentration amounted up to 0.5%. Then, the cells were incubated for 3 hours at 37° C./5% CO2. After the incubation virus (300 tissue culture infective doses in 30 μl per one well) was added to the cells. […]. Then the cells were incubated for 3 hours at 37° C./5% CO2. The cells were fixed by addition acetone/methanol (1:1) mixture in amount of 250 gμl/well. In one minute the cells were washed with Phosphate Buffered Saline (PBS) three times. After that the cells were quenched by addition of 10% solution of fetal calf serum in PBS (150 μl/well) and kept for one hour at room temperature. Then the cells were incubated with mouse monoclonal antibody (100 μl/well) to cor-antigen HCV, clone C7-50 (Source: Affinity BioReagents; Catalogue: MA1-080) (working dilution—1:500 in 10% solution of fetal calf serum in PBS) for two hours at 37° C. The cells were washed 6 times with PBS/0.05% Tween 20 solution and incubated for one hour with peroxidase conjugated goat anti-mouse immunoglobulin (100 μl/well) (working dilution—1:2500 in 10% solution of fetal calf serum in PBS). The cells were washed 6 times with PBS/0.05% Tween 20 solution, then with PBS solution, and 100 μl/well of the substrate (consisting of 1 tablet of oPD, 12 ml of citrate/phosphate buffer and 5 μl of 30% H2O2) were added. The plates were kept for 30 min in darkness at room temperature. The reaction was stopped by addition of 2N […] (100 μl/well), optical density (at 490 nm) was measured with the help of multichannel spectrophotometer Victor3 V 1420 (Perkin Elmer). IC50 values for every tested compound were calculated using XLfit 4 programm.

For data set [2], the system named is influenza A/New Caledonia/20/99 (H1N1) viruses. Description: microbe, parasite or virus in culture. In kind it is cell-based.
In data set [3] the test system is cellular line MDCK. The settings on record: cited from earlier work.
Data set [4] relates to some other cellular lines. The settings on record: cited from earlier work.
Data set [5] concerns influenza virus. The settings on record: cellular line MDCK, cited from earlier work.
[6] abbreviates: influenza A/New Caledonia/20/99 (H1N1), MDCK cells, ELISA, read-out: IC50.

In data set [1], `COC(=O)Cc1c(C)n(C(=O)c2ccc(Cl)cc2)c2ccc(OC)c(F)c12` [1e(1), methyl 2-[2-methyl-5-methoxy-4-fluoro-1-(4-chlorobenzoyl)-1H-indol-3-yl]acetate] gave an IC50 of 39 µM.
Take `COC(=O)Cc1c(C)n(C)c2cc(F)c(OC)cc12` [1g(2), methyl 2-(1,2-dimethyl-5-methoxy-6-fluoro-1H-indol-3-yl)acetate]: the IC50 in data set [2] (setting [6]) stood at 10 µg/mL (≈ 37.7 µM); in data set [1], 6.3 µM.
For `COc1ccc2c(c1F)c(CC(=O)O)c(CN(C)C)n2C` [1i(13), 2-(2-(dimethylamino)methyl-1-methyl-5-methoxy-4-fluoro-1H-indol-3-yl)acetic acid], the IC50 in data set [2] (setting [6]) stood at 12 µg/mL (≈ 40.8 µM).
The compound `COC(=O)Cc1c(C)n(C)c2cc(F)c(O)cc12` [1v(1), methyl 2-(5-hydroxy-1,2-dimethyl-6-fluoro-1H-indol-3-yl)acetate] had an IC50 in data set [1] of 50 µM.
As to `COC(=O)Cc1c(C)[nH]c2ccc(OC)c(F)c12` [1.1(1), methyl 2-(2-methyl-5-methoxy-4-fluoro-1H-indol-3-yl)acetate], in data set [1], the IC50 was 38 µM.
In the case of `CCOC(=O)c1c(CSc2ccccc2)n(C)c2cc(Br)c(O)c(CN(C)C)c12.Cl` [Arbidol, ethyl 6-bromo-4-[(dimethylamino)methyl]-5-hydroxy-1-methyl-2-(phenylthiomethyl)-1H-indole-3-carboxylate hydrochloride], the TC50 in data set [3] is 62.5 µg/mL. In addition, in data set [4], the CC50 was 15 to 25 µg/mL. Besides, the “selectivity index (SI50)” value in data set [5] (for influenza virus) is recorded as 2.69. Besides, the IC50 in data set [5] (influenza virus) is given as 23.2 mkg/ml.
`COC(=O)Cc1c(C)[nH]c2cc(F)c(OC)cc12` [1.2(1), methyl 2-(2-methyl-5-methoxy-6-fluoro-1H-indol-3-yl)acetate] came in with an IC50 in data set [1] of 13 µM.
Same read-out and setting: then `COC(=O)Cc1c(C)n(C)c2cc(C(F)(F)F)c(OC)cc12` [1g(4), methyl 2-(1,2-dimethyl-5-methoxy-6-(trifluoromethyl)-1H-indol-3-yl)acetate], with 2.4 µM.
As to `CN(C)Cc1c(CC(=O)O)c2cc(O)c(-c3cccnc3)cc2n1C` [1t(5), 2-(5-hydroxy-2-(dimethylamino)methyl-1-methyl-6-(pyridin-3-yl)-1H-indol-3-yl)acetic acid], the IC50 in data set [2] (setting [6]) is over 15 µg/mL.
In data set [2] (H1N1, MDCK), `COC(=O)C(CCN(C)C)c1c(C)n(C)c2cc(C(F)(F)F)c(OC)cc12` (centres unmarked) [1p(2)•HCl, methyl 2-(1,2-dimethyl-5-methoxy-6-(trifluoromethyl)-1H-indol-3-yl)-4-dimethylaminobutyrate] came in with an IC50 of 12 µg/mL.
Consider `Cc1c(CC(=O)O)c2cc(O)c(F)cc2n1C` [1u(6), 2-(5-hydroxy-1,2-dimethyl-6-fluoro-1H-indol-3-yl)acetic acid], for which the IC50 in data set [2] (setting [6]) was over 15 µg/mL.
As for `COC(=O)Cc1c(C)[nH]c2cc(C(F)(F)F)c(OC)cc12` [1.4(1), methyl 2-(2-methyl-5-methoxy-6-(trifluoromethyl)-1H-indol-3-yl)acetate], the IC50 in data set [2] (setting [6]) is over 15 µg/mL; in data set [1], 1.7 µM.
